Values of other authors in patent publication US9510493B2, “Mixture of hydrofluoroolefin and fluoroketone for use as an insulation and/or ARC extinguishing medium and a gas insulated medium-voltage electrical device comprising same” (priority 2011, dated 2016).

Assays:
[1] = test system: humans; conditions: average limit concentration, 8 hours per day for 5 days per week, without noxious effect
[2] = test system: animal population; conditions: causing death of 50% of an animal population

In the case of `F/C=C/C(F)(F)F` [HFO-1234ze, trans-1,3,3,3-tetrafluoro-1-propene], the “occupational exposure limit OEL” value [1] is listed as 1 000 ppm and the “lethal dose DL50” value [2] is listed as > 200 000 ppm.

In the case of `O=C(C(F)(F)F)C(F)(C(F)(F)F)C(F)(F)F` [C5K, decafluoro-2-methylbutan-3-one], the “occupational exposure limit OEL” value [1] is given as 1 000 ppm and the “lethal dose DL50” value [2] is given as “more than 200 000 ppm”.
